# Experimental data from the NIST ThermoML archive (doi:10.1021/acs.jced.5b00662).
# Several values for one entry are separate records, joined by “and”; a condition that tells them apart may be missing. Identical values can stand only once. ± gives the expanded uncertainty stated by the source.
# Columns and labels:
# [1] = 101.33 kPa, Liquid; for speed of sound: Sing-around technique in a fixed-path interferometer; for mass density: Vibrating tube method; for viscosity: Concentric cylinders viscometry
# [2] = refractive index (Na D-line) (dimensionless); conditions: 101.33 kPa, Liquid, Standard Abbe refractometry
smiles,measurement,setting,value
"COCCOCCOCCOC [2,5,8,11-tetraoxadodecane]",speed of sound,[1]; 283.15 K,1401.4 ± 1.6 m/s
same,mass density,[1]; 283.15 K,994.1 ± 2 kg/m3
same,viscosity,[1]; 288.15 K,2.414 ± 0.098 mPa·s
same,speed of sound,[1]; 288.15 K,1381.4 ± 1.6 m/s
same,mass density,[1]; 288.15 K,990.8 ± 2 kg/m3 and 989.4 ± 2 kg/m3
same,viscosity,[1]; 293.15 K,2.162 ± 0.088 mPa·s
same,speed of sound,[1]; 293.15 K,1361.6 ± 1.5 m/s
same,mass density,[1]; 293.15 K,986 ± 2 kg/m3 and 984.6 ± 2 kg/m3
same,viscosity,[1]; 298.15 K,1.956 ± 0.079 mPa·s
same,speed of sound,[1]; 298.15 K,1342.1 ± 1.5 m/s
same,mass density,[1]; 298.15 K,979.9 ± 2 kg/m3 and 981.5 ± 2 kg/m3
same,viscosity,[1]; 303.15 K,1.777 ± 0.072 mPa·s
same,speed of sound,[1]; 303.15 K,1322.8 ± 1.5 m/s
same,mass density,[1]; 303.15 K,975.1 ± 2 kg/m3 and 976.7 ± 2 kg/m3
same,viscosity,[1]; 308.15 K,1.623 ± 0.066 mPa·s
same,speed of sound,[1]; 308.15 K,1303.6 ± 1.5 m/s
same,mass density,[1]; 308.15 K,970.4 ± 2 kg/m3 and 971.9 ± 2 kg/m3
same,viscosity,[1]; 313.15 K,1.439 ± 0.059 mPa·s
same,speed of sound,[1]; 313.15 K,1284.4 ± 1.5 m/s
same,mass density,[1]; 313.15 K,965.6 ± 2 kg/m3 and 967.2 ± 2 kg/m3
same,viscosity,[1]; 318.15 K,1.373 ± 0.056 mPa·s
same,mass density,[1]; 318.15 K,962.4 ± 2 kg/m3
same,viscosity,[1]; 323.15 K,1.27 ± 0.052 mPa·s
same,speed of sound,[1]; 323.15 K,1246.9 ± 1.5 m/s
same,mass density,[1]; 323.15 K,956.1 ± 2 kg/m3 and 957.7 ± 2 kg/m3
same,viscosity,[1]; 328.15 K,1.179 ± 0.048 mPa·s
same,mass density,[1]; 328.15 K,952.9 ± 2 kg/m3
same,viscosity,[1]; 333.15 K,1.064 ± 0.043 mPa·s
same,speed of sound,[1]; 333.15 K,1209.9 ± 1.5 m/s
same,mass density,[1]; 333.15 K,946.5 ± 2 kg/m3 and 948.1 ± 2 kg/m3
same,viscosity,[1]; 338.15 K,1.026 ± 0.042 mPa·s
same,mass density,[1]; 338.15 K,943.3 ± 2 kg/m3
same,viscosity,[1]; 343.15 K,0.962 ± 0.039 mPa·s
same,speed of sound,[1]; 343.15 K,1174 ± 1.5 m/s
same,mass density,[1]; 343.15 K,938.6 ± 2 kg/m3 and 936.9 ± 2 kg/m3
same,viscosity,[1]; 348.15 K,0.903 ± 0.037 mPa·s
same,mass density,[1]; 348.15 K,933.8 ± 2 kg/m3
same,viscosity,[1]; 353.15 K,0.814 ± 0.033 mPa·s
same,mass density,[1]; 353.15 K,929 ± 2 kg/m3
same,viscosity,[1]; 358.15 K,0.801 ± 0.033 mPa·s
same,mass density,[1]; 358.15 K,924.2 ± 2 kg/m3
same,viscosity,[1]; 363.15 K,0.756 ± 0.031 mPa·s
same,mass density,[1]; 363.15 K,919.4 ± 2 kg/m3
same,viscosity,[1]; 368.15 K,0.715 ± 0.029 mPa·s
same,mass density,[1]; 368.15 K,914.5 ± 2 kg/m3
same,viscosity,[1]; 373.15 K,0.65 ± 0.027 mPa·s
same,mass density,[1]; 373.15 K,909.7 ± 2 kg/m3
same,refractive index,[2]; 283.15 K,1.42712 ± 0.00061
same,refractive index,[2]; 288.15 K,1.42498 ± 0.00061
same,refractive index,[2]; 293.15 K,1.42284 ± 0.00061
same,refractive index,[2]; 298.15 K,1.42071 ± 0.00061
same,refractive index,[2]; 303.15 K,1.41862 ± 0.00061
same,refractive index,[2]; 313.15 K,1.41434 ± 0.00061
same,refractive index,[2]; 323.15 K,1.41005 ± 0.00061
same,refractive index,[2]; 333.15 K,1.40579 ± 0.00061
same,refractive index,[2]; 343.15 K,1.40153 ± 0.00061
same,refractive index,[2]; 353.15 K,1.39723 ± 0.00061
"CCOCCOCCO [3,6-dioxa-1-octanol]",speed of sound,[1]; 283.15 K,1428.9 ± 2.3 m/s
same,mass density,[1]; 283.15 K,997.1 ± 4.1 kg/m3
same,viscosity,[1]; 288.15 K,5.157 ± 0.21 mPa·s
same,speed of sound,[1]; 288.15 K,1410.5 ± 2.3 m/s
same,mass density,[1]; 288.15 K,993.9 ± 4.1 kg/m3 and 992.6 ± 4.1 kg/m3
same,viscosity,[1]; 293.15 K,4.466 ± 0.18 mPa·s
same,speed of sound,[1]; 293.15 K,1392.6 ± 2.3 m/s
same,mass density,[1]; 293.15 K,989.4 ± 4.1 kg/m3 and 988.2 ± 4.1 kg/m3
same,viscosity,[1]; 298.15 K,3.811 ± 0.16 mPa·s
same,speed of sound,[1]; 298.15 K,1374.6 ± 2.3 m/s
same,mass density,[1]; 298.15 K,983.7 ± 4.1 kg/m3 and 984.9 ± 4.1 kg/m3
same,viscosity,[1]; 303.15 K,3.328 ± 0.14 mPa·s
same,speed of sound,[1]; 303.15 K,1356.8 ± 2.3 m/s
same,mass density,[1]; 303.15 K,979.3 ± 4.1 kg/m3 and 980.4 ± 4.1 kg/m3
same,viscosity,[1]; 308.15 K,2.933 ± 0.12 mPa·s
same,speed of sound,[1]; 308.15 K,1339 ± 2.3 m/s
same,mass density,[1]; 308.15 K,974.8 ± 4.1 kg/m3 and 976 ± 4.1 kg/m3
same,viscosity,[1]; 313.15 K,2.592 ± 0.11 mPa·s
same,speed of sound,[1]; 313.15 K,1321.7 ± 2.3 m/s
same,mass density,[1]; 313.15 K,970.3 ± 4.1 kg/m3 and 971.5 ± 4.1 kg/m3
same,viscosity,[1]; 318.15 K,2.331 ± 0.097 mPa·s
same,mass density,[1]; 318.15 K,967 ± 4.1 kg/m3
same,viscosity,[1]; 323.15 K,2.099 ± 0.087 mPa·s
same,speed of sound,[1]; 323.15 K,1286.9 ± 2.3 m/s
same,mass density,[1]; 323.15 K,961.3 ± 4.1 kg/m3 and 962.5 ± 4.1 kg/m3
same,viscosity,[1]; 328.15 K,1.901 ± 0.079 mPa·s
same,mass density,[1]; 328.15 K,958.1 ± 4.1 kg/m3
same,viscosity,[1]; 333.15 K,1.718 ± 0.071 mPa·s
same,speed of sound,[1]; 333.15 K,1252.6 ± 2.3 m/s
same,mass density,[1]; 333.15 K,952.2 ± 4.1 kg/m3 and 953.5 ± 4.1 kg/m3
same,viscosity,[1]; 338.15 K,1.583 ± 0.066 mPa·s
same,mass density,[1]; 338.15 K,949 ± 4.1 kg/m3
same,viscosity,[1]; 343.15 K,1.456 ± 0.061 mPa·s
same,speed of sound,[1]; 343.15 K,1218.9 ± 2.3 m/s
same,mass density,[1]; 343.15 K,944.4 ± 4.1 kg/m3 and 943.1 ± 4.1 kg/m3
same,viscosity,[1]; 348.15 K,1.343 ± 0.056 mPa·s
same,mass density,[1]; 348.15 K,939.9 ± 4.1 kg/m3
same,viscosity,[1]; 353.15 K,1.225 ± 0.051 mPa·s
same,mass density,[1]; 353.15 K,935.3 ± 4.1 kg/m3
same,viscosity,[1]; 358.15 K,1.153 ± 0.048 mPa·s
same,mass density,[1]; 358.15 K,930.7 ± 4.1 kg/m3
same,viscosity,[1]; 363.15 K,1.072 ± 0.045 mPa·s
same,mass density,[1]; 363.15 K,926.1 ± 4.1 kg/m3
same,viscosity,[1]; 368.15 K,0.997 ± 0.042 mPa·s
same,mass density,[1]; 368.15 K,921.4 ± 4.1 kg/m3
same,viscosity,[1]; 373.15 K,0.921 ± 0.038 mPa·s
same,mass density,[1]; 373.15 K,916.8 ± 4.1 kg/m3
same,refractive index,[2]; 283.15 K,1.4311 ± 0.0007
same,refractive index,[2]; 288.15 K,1.42916 ± 0.0007
same,refractive index,[2]; 293.15 K,1.42711 ± 0.0007
same,refractive index,[2]; 298.15 K,1.42501 ± 0.0007
same,refractive index,[2]; 303.15 K,1.4229 ± 0.0007
same,refractive index,[2]; 313.15 K,1.41887 ± 0.0007
same,refractive index,[2]; 323.15 K,1.41483 ± 0.0007
same,refractive index,[2]; 333.15 K,1.41082 ± 0.0007
same,refractive index,[2]; 343.15 K,1.40683 ± 0.0007
same,refractive index,[2]; 353.15 K,1.40276 ± 0.0007
CCOCCOCCOCC [diethylene glycol diethyl ether],speed of sound,[1]; 283.15 K,1303.4 ± 2.3 m/s
same,mass density,[1]; 283.15 K,917 ± 4.1 kg/m3
same,viscosity,[1]; 288.15 K,1.483 ± 0.062 mPa·s
same,speed of sound,[1]; 288.15 K,1283.2 ± 2.3 m/s
same,mass density,[1]; 288.15 K,914.4 ± 4.1 kg/m3 and 912.2 ± 4.1 kg/m3
same,viscosity,[1]; 293.15 K,1.353 ± 0.056 mPa·s
same,speed of sound,[1]; 293.15 K,1263.1 ± 2.3 m/s
same,mass density,[1]; 293.15 K,909.6 ± 4.1 kg/m3 and 907.4 ± 4.1 kg/m3
same,viscosity,[1]; 298.15 K,1.254 ± 0.052 mPa·s
same,speed of sound,[1]; 298.15 K,1243.3 ± 2.3 m/s
same,mass density,[1]; 298.15 K,902.6 ± 4.1 kg/m3 and 904.7 ± 4.1 kg/m3
same,viscosity,[1]; 303.15 K,1.156 ± 0.048 mPa·s
same,speed of sound,[1]; 303.15 K,1223.4 ± 2.3 m/s
same,mass density,[1]; 303.15 K,897.7 ± 4.1 kg/m3 and 899.8 ± 4.1 kg/m3
same,viscosity,[1]; 308.15 K,1.067 ± 0.044 mPa·s
same,speed of sound,[1]; 308.15 K,1203.9 ± 2.3 m/s
same,mass density,[1]; 308.15 K,892.9 ± 4.1 kg/m3 and 895 ± 4.1 kg/m3
same,viscosity,[1]; 313.15 K,0.9874 ± 0.041 mPa·s
same,speed of sound,[1]; 313.15 K,1184.1 ± 2.3 m/s
same,mass density,[1]; 313.15 K,888.1 ± 4.1 kg/m3 and 890.1 ± 4.1 kg/m3
same,viscosity,[1]; 318.15 K,0.916 ± 0.038 mPa·s
same,mass density,[1]; 318.15 K,885.3 ± 4.1 kg/m3
same,viscosity,[1]; 323.15 K,0.852 ± 0.036 mPa·s
same,speed of sound,[1]; 323.15 K,1145.1 ± 2.3 m/s
same,mass density,[1]; 323.15 K,878.4 ± 4.1 kg/m3 and 880.4 ± 4.1 kg/m3
same,viscosity,[1]; 328.15 K,0.795 ± 0.033 mPa·s
same,mass density,[1]; 328.15 K,875.6 ± 4.1 kg/m3
same,viscosity,[1]; 333.15 K,0.744 ± 0.031 mPa·s
same,speed of sound,[1]; 333.15 K,1107.9 ± 2.3 m/s
same,mass density,[1]; 333.15 K,868.7 ± 4 kg/m3 and 870.7 ± 4.1 kg/m3
same,viscosity,[1]; 338.15 K,0.699 ± 0.029 mPa·s
same,mass density,[1]; 338.15 K,865.9 ± 4 kg/m3
same,viscosity,[1]; 343.15 K,0.658 ± 0.028 mPa·s
same,speed of sound,[1]; 343.15 K,1071.6 ± 2.3 m/s
same,mass density,[1]; 343.15 K,861 ± 4 kg/m3 and 858.9 ± 4 kg/m3
same,viscosity,[1]; 348.15 K,0.621 ± 0.026 mPa·s
same,mass density,[1]; 348.15 K,856.1 ± 4 kg/m3
same,viscosity,[1]; 353.15 K,0.587 ± 0.025 mPa·s
same,mass density,[1]; 353.15 K,851.2 ± 4 kg/m3
same,viscosity,[1]; 358.15 K,0.556 ± 0.023 mPa·s
same,mass density,[1]; 358.15 K,846.3 ± 4 kg/m3
same,viscosity,[1]; 363.15 K,0.526 ± 0.022 mPa·s
same,mass density,[1]; 363.15 K,841.4 ± 4 kg/m3
same,viscosity,[1]; 368.15 K,0.498 ± 0.021 mPa·s
same,mass density,[1]; 368.15 K,836.5 ± 4 kg/m3
same,viscosity,[1]; 373.15 K,0.47 ± 0.02 mPa·s
same,mass density,[1]; 373.15 K,831.6 ± 4 kg/m3
same,refractive index,[2]; 283.15 K,1.41658 ± 0.0007
same,refractive index,[2]; 288.15 K,1.41428 ± 0.0007
same,refractive index,[2]; 293.15 K,1.41202 ± 0.0007
same,refractive index,[2]; 298.15 K,1.40978 ± 0.0007
same,refractive index,[2]; 303.15 K,1.40749 ± 0.0007
same,refractive index,[2]; 313.15 K,1.40296 ± 0.0007
same,refractive index,[2]; 323.15 K,1.39838 ± 0.0007
same,refractive index,[2]; 333.15 K,1.39382 ± 0.0007
same,refractive index,[2]; 343.15 K,1.38929 ± 0.0007
same,refractive index,[2]; 353.15 K,1.38474 ± 0.0007
